According to patent US20100248229A1, “INVITRO HUMAN EMBRYONIC MODEL AND A METHOD THEREOF” (Stempeutics Research Private Limited, priority 2007, published 2010):

How the values were obtained:
Type in all cases: cell-based, human
hESCs (EB formation) = assay: Effect on the formation of EBs from hESCs; conditions: 10 pg/ml and above
Protocol: Human Embryonic Stem Cells (hESCs) cultured on feeder cells of mouse or human origin, or cultured in feeder free conditions were exposed to several different dilutions of the drug for 6 days and subjected to Embryoid Body (EB) formation on non adherent plates, in presence of the drug for another 4 days. The control set was free from any extraneous addition of drugs. The formation of normal EBs in the control was evaluated by testing the expression of all the germ lineage, pluripotency and epigenomic markers as given in table Nos. 1-7 by RT-PCR, Flow Cytometry and Immunofluorescence. Alteration in the expression profiles of these genes in the treated EBs indicated a detrimental effect on embryonic development. A failure to form nicely cavitating EBs, as observed under the microscope, or a delay in the formation of the EBs as compared to the control indicated a possible embryo toxic effect of the drug.
The effect of molecules/compounds was screened. The compound, such as Rho Kinases inhibitor Y27632, 5-Azacytidine, and gram negative bacterial endotoxin lipopolysaccharide (LPS) on the formation of EBs from hESCs were screened for their toxic activity. LPS is known to be involved in genital tract infection related pathogenesis and pregnancy losses.

EBs = assay: In vitro 3-D embryo implantation model: attachment and outgrowth of EBs
Excerpt: An in vitro 3-dimensional (3-D) model/system for embryo implantation employing EBs in place of embryos was developed. The EBs collected on different days were subjected to implantation/attachment on the artificial substratum/surface.
To make this artificial surface regular tissue culture dishes or organ culture dishes were coated with about 1 to 2 mm thick coating of 0.5 to 1% low melting or high melting agarose in DPBS. A few wells of about 1 to 2 mm diameter are created using sterile paper disks, preferable in the center of the dish, which were removed after the agarose solidifies. Alternatively a horizontal tube like structure can be created by casting the gel over a fine glass capillary, which can be withdrawn as the agarose solidifies. This cavity/depression or tube like structure of agarose is then coated with matrix proteins like matrigel, collagen, fibronectin, laminin, gelatin etc. The coated agarose dishes were also layered with mouse or human endometrial stromal cells obtained from primary cultures or cell lines. The EBs were placed carefully in the cavity created or flushed inside the tube using a bent pasture pipette. The cells were cultured in normal standard EB media.
The EBs adhere and outgrows spreading out as a monolayer of cells on the extracellular matrix. Some cells invaded the surrounding agarose by day 10. A failure to implant/outgrow within ten days on this matrix after exposure to the drug/molecule indicates an abnormality. However, some drugs/could also support/enhance the process of attachment and outgrowth of the EBs. These molecules were screened for several other possible applications, though these may not necessarily be safe for embryonic development.
Four day old EBs were cultured on agarose and fibronectin coated surfaces. […] However, as Y27632 supports and enhances outgrowth, the effect of this drug on the expression profiles of the lineage markers and other genes needs to be screened for evaluating effect on normal development.
The model consists of a culture plate which is coated with Low melting (0.5%) agarose, A well of various depths is created in the agarose by various means eg: putting sterile filter paper disks while casting the gel and removing them latter. The gel is then coated with extracellular matrix components like fibronectin, collagen, laminin, etc. Human endometrial stromal fibroblast cell line CRL4003 is grown on this extracellular matrix as a monolayer. The spherical embryoid bodies or embryo like entities at day 4.5 are injected or pipetted into these cavities. The attachment is allowed in a culture media regularly used for hESC culture, without FGF2 supplementation (FIG. 1).
3. Lineage induction studies: The embryoid bodies after attachment to the implantation site differentiates to all lineages.
Method: Spherical Cytic EBs were collected on day 4.5 and exposed to the continuous presence of Y27632 (various doses were used). […] The control cytic EB had however just attached with smaller area of outgrowth showing that this dose of Y27632 can help in initial implantation of embryo during pregnancy.

[1] = tested on: EBs derived from hESC line HUES9; assay: Morphology of EBs under the microscope; conditions: 12.5 pg/ml for 48 hrs, day 4.5
Excerpt: Exposure of EBs to LPS: EBs at day-2.5 were exposed to 12.5 pg/ml of Endotoxin/lipopolysaccharide (LPS) (Sigma) for 48 hrs supplemented in culture medium. The normal and the endotoxin treated EBs were harvested on day 4.5. Post exposure, the control and endotoxin treated EBs were divided in two groups. One group was lysed in TRIZOL for RNA isolation and the other group was fixed in 4% paraformaldehyde for immunofluorescence. The expression profile of the ectoderm, endoderm, mesoderm and trophectoderm lineage markers like PHI-tubulin, GATA4, BMP2, Brachury and β-hCG etc. were studied by RT-PCR and Immunofluorescence. The expression of the LPS-inducible and pluripotency related DNA binding protein HMGB1 was also studied in both the control and treated EBs.
The HUES9 cells were harvested on day 5 and used for induction of EBs. The control EBs were collected on day 4.5 of culture (FIG. 4b). The LPS treated EBs were also collected on day 4.5 and were compared with the normal for morphological changes under the microscope (FIG. 4c). […] The normal and LPS treated EBs were screened for pluripotency and the germ lineage markers. […] HMGB1 mRNA expression was not found in the normal EBs (FIG. 5). […] Immunofluorescence localization of HMGB1 and the mesoderm marker Brachury was done to check the protein expressions. […]

lipopolysaccharide [LPS]
EB formation from hESCs (hESCs (EB formation)): complete inhibition of EB formation
attachment and outgrowth of EBs (EBs; four day old EBs on agarose and fibronectin coated surfaces, 15 pg/ml and above): completely inhibited
degeneration, attachment and outgrowth of EBs in implantation model (EBs; high dose, 48 hrs): degeneration of the EBs, and they failed to attach and outgrow
ability of attached EBs to give rise to all lineages (EBs; lineage induction studies, in presence of the compound): compromised
morphology (shape, size or numbers) of treated vs normal EBs [1]: did not show any visible morphological differences
